Experimental findings from patent US11795173B1, “Substituted pyridines as PARP1 inhibitors” (Xinthera, Inc., priority 2022, dated 2023) are described below.

Data set [1] deals with DLD-1 BRCA2(−/−) cells. The data set can be described thus: Cell growth inhibition assay (CellTiter-Glo), DLD-1 BRCA2(−/−). The note with it: Homo sapiens, DLD-1, 168 h; cell viability, CellTiter Glo 2.0, 7 days. Type of data set: cell-based. As to the method:
The objective of this study is to evaluate the effect of compound disclosed herein on cell proliferation through the cell viability assay in DLD-1 BRCA2(−/−) and parental isogenic pair and MDA-MB-436 (mutated BRCA1) cell lines.
DLD-1 BRCA2(−/−) and parental isogenic pair were cultured in RPMI 1640 supplemented with 10% fetal bovine serum (FBS), and MDA-MB-436 cells were cultured in DMEM supplemented with 10% FBS. Both are culture at 37° C. with 5% CO2. […] The cells were seeded into the plate in the density of 50 cells/well (DLD-1 parental), 200 cells/well (DLD-1 BRCA2−/−), or 500 cells/well (MDA-MB-436). After a short spun, the cells were cultured in a well moisturized incubator at 37° C. with 5% CO2 for 7 days without disturbance. The cell viability was measured by CellTiter Glo 2.0 assay kit (Promega, G9243), and growth inhibition rate was calculated and plotted against final compound concentration, and the data were fitted in Xfit to generate IC50.

Data set [2] relates to MDA-MB-436 (mutated BRCA1) cells. The data set can be described thus: Cell growth inhibition assay (CellTiter-Glo), MDA-MB-436. The note with it: Homo sapiens, MDA-MB-436, 168 h; cell viability, CellTiter Glo 2.0, 7 days. The class given is cell-based. The source says:
The objective of this study is to evaluate the effect of compound disclosed herein on cell proliferation through the cell viability assay in DLD-1 BRCA2(−/−) and parental isogenic pair and MDA-MB-436 (mutated BRCA1) cell lines. The CellTiter-Glo (CTG) based cell viability assay is designed to determine the number of viable cells in the culture because of compound effect, by quantifying ATP, which indicates the presence of metabolically active cells.
DLD-1 BRCA2(−/−) and parental isogenic pair were cultured in RPMI 1640 supplemented with 10% fetal bovine serum (FBS), and MDA-MB-436 cells were cultured in DMEM supplemented with 10% FBS. Both are culture at 37° C. with 5% CO2. Invention compounds were distributed to the 384 well plate (Corning, 3764) using Echo acoustic liquid handler to form a 1:3 serially diluted final concentration with top dose of 10 or 30 μM. The cells were seeded into the plate in the density of 50 cells/well (DLD-1 parental), 200 cells/well (DLD-1 BRCA2−/−), or 500 cells/well (MDA-MB-436). After a short spun, the cells were cultured in a well moisturized incubator at 37° C. with 5% CO2 for 7 days without disturbance. The cell viability was measured by CellTiter Glo 2.0 assay kit (Promega, G9243), and growth inhibition rate was calculated and plotted against final compound concentration, and the data were fitted in Xfit to generate IC50.

In data set [3] the target is MDR1 (Homo sapiens (Human), UniProt P08183). The data set can be described thus: In vitro human transporter efflux, MDCKII cells expressing MDR1. The note with it: for Papp A→B at 2 h, 10 μM: MDCK-MDR1, pH 7.4, apical-to-basolateral, pH7.4, read-out: MDCK-MDR1 Papp AB; for Papp A→B at 2 h, 10 μM / Papp B→A at 2 h, 10 μM: 2-hour incubation; for Papp B→A at 2 h, 10 μM: MDCK-MDR1, pH 7.4, basolateral-to-apical, pH7.4, read-out: MDCK-MDR1 Papp BA; for efflux ratio at 2 h, 10 μM: MDCK-MDR1, pH 7.4, efflux ratio Papp BA/Papp AB. Type of data set: in vitro ADME. The method, then:
Madin-Darby canine kidney (MDCKII) cells expressing either MDR1 or BCRP were seeded onto Corning HTS Transwell® 96-well polycarbonate permeable (0.4 μm pore) supports at a density of 545,000 cells/cm^2. Cells were incubated for 4-8 days prior to assay, and monolayer integrity was assessed by measuring transepithelial electrical resistance (TEER). […] The final organic solvent concentration was 0.5% (v/v). Bidirectional (apical-to-basolateral and basolateral-to-apical) flux of the test and reference compounds was determined over a 2-hour incubation at 37° C. and 5% CO2 with a relative humidity of 95%. At the end of the incubation, samples from the apical and basolateral side were taken and then precipitated with acetonitrile containing internal standard. After centrifugation at 3200×g, supernatants were diluted 1:1 (v/v) with water and subjected to analysis via HPLC-MS/MS.
Apparent permeability (Papp, ×10^−6 cm/s) was calculated for all transport assays using the following equation: […]
Efflux ratio was determined by calculating the ratio of the Papp in the basolateral-to-apical direction to the Papp in the apical-to-basolateral direction using the following equation: […]

MDR1, sequence (P08183 whole entry): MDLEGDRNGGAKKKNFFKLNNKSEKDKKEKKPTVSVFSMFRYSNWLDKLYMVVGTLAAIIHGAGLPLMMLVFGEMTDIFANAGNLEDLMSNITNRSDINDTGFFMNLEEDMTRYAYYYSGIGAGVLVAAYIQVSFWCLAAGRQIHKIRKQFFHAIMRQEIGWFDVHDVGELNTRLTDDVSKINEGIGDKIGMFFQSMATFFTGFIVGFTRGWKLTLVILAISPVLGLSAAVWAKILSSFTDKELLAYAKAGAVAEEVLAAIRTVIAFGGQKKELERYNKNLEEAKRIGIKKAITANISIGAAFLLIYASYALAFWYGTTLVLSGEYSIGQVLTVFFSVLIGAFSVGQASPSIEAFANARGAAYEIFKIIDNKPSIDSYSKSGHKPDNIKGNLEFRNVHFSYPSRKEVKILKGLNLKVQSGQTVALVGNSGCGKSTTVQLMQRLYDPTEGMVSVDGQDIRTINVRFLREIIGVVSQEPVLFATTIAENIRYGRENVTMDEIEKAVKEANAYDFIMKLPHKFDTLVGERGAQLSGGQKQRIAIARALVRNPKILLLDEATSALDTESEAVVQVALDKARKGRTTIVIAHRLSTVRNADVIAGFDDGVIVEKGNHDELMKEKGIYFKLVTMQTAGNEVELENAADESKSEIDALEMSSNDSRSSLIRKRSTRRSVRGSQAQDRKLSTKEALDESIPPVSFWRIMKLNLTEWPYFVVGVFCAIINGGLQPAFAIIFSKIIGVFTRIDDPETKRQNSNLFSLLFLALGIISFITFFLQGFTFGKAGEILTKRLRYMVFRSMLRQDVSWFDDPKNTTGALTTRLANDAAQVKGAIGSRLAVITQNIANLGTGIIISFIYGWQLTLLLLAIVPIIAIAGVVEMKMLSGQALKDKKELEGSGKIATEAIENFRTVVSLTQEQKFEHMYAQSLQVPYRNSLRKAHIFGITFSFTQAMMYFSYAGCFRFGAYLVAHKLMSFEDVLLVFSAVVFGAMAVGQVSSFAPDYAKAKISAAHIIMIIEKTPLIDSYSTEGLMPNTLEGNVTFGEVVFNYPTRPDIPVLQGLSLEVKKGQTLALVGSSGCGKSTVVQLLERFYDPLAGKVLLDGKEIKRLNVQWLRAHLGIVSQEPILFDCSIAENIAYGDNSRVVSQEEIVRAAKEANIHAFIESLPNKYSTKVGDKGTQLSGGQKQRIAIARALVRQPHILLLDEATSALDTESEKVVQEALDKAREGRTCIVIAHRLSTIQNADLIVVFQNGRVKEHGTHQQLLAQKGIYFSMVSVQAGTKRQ

In general, EC50 refers to the concentration giving half of the maximal effect. Regarding `[2H]C1([2H])Cc2c(c3ccc(CN4CCN(c5ccc(C(=O)NC)nc5F)CC4)c(F)c3[nH]c2=O)O1` (single isomer, unassigned) [Example 31, 6-fluoro-5-(4-((6-fluoro-4-oxo-2,3,4,5-tetrahydrofuro[3,2-c]quinolin-7-yl-2,2-d2)methyl)piperazin-1-yl)-N-methylpicolinamide], the EC50 in data set [1] was determined as 7.7 nM; in data set [2] it was 6.9 nM.
As for `[2H]C1([2H])COc2c1c(=O)[nH]c1c(F)c(CN3CCN(c4ccc(C(=O)NC)nc4F)CC3)ccc21` (single isomer, unassigned) [Example 32, 6-fluoro-5-(4-((6-fluoro-4-oxo-2,3,4,5-tetrahydrofuro[3,2-c]quinolin-7-yl-3,3-d2)methyl)piperazin-1-yl)-N-methylpicolinamide], the values for the EC50 in data set [1] and in data set [2] were 5.4 nM and 9.2 nM, respectively.
In the case of `CNC(=O)c1ccc(N2CCN(Cc3ccc4c5c(c(=O)[nH]c4c3F)CCC5)CC2)c(F)n1` [Comp. Ex. 4, reference compound], in data set [1], a half-maximal effect (EC50) was put at 1 nM. For the same compound, the EC50 in data set [2] amounted to 1.1 nM. Moreover, in data set [3], the Papp A→B at 2 h, 10 μM was found to be 16.3 ×10⁻⁶ cm/s and the Papp B→A at 2 h, 10 μM stood at 20.6 ×10⁻⁶ cm/s.
For `CNC(=O)c1ccc(N2CCN(Cc3ccc4c([nH]c(=O)c5ccnn54)c3F)CC2)cn1` [Example 2], the EC50 in data set [2] amounted to 68 nM.
With `O=C(NC1CC1)c1ccc(N2CCN(Cc3ccc4c([nH]c(=O)c5ccnn54)c3F)CC2)c(F)n1` [Example 3], the EC50 in data set [1] worked out at 9.1 nM; in data set [2] it was 4.3 nM.
The efflux ratio is the permeability from basolateral to apical divided by that in the opposite direction, in the common usage. `Cc1cc2c(=O)[nH]c3c(F)c(CN4CCN(c5ccc(C(=O)NC6CC6)nc5F)CC4)ccc3n2n1` [Example 4] gave a concentration for a half-maximal effect (EC50) in data set [1] of 2.1 nM. Also, a half-maximal response in data set [2] (EC50) required 1.2 nM. Further, in data set [3], the Papp A→B at 2 h, 10 μM is 4.4 ×10⁻⁶ cm/s; the Papp B→A at 2 h, 10 μM was 8.6 ×10⁻⁶ cm/s; the efflux ratio at 2 h, 10 μM worked out at 1.96.
In data set [1], `CNC(=O)c1ccc(N2CCN(Cc3ccc4c([nH]c(=O)c5cc(C)nn54)c3F)CC2)c(F)n1` [Example 5] yielded an EC50 of 4.2 nM. In data set [2], this compound displayed an EC50 of 2.9 nM. In data set [3], the Papp A→B at 2 h, 10 μM was 10.3 ×10⁻⁶ cm/s; the Papp B→A at 2 h, 10 μM was determined as 21.2 ×10⁻⁶ cm/s; the efflux ratio at 2 h, 10 μM is 2.06.
Consider `CNC(=O)c1ccc(N2CCN(Cc3ccc4c([nH]c(=O)c5ccoc54)c3F)CC2)c(F)n1` [Example 6, 6-fluoro-5-[4-({6-fluoro-4-oxo-5H-furo[3,2-c]quinolin-7-yl}methyl)piperazin-1-yl]-N-methylpyridine-2-carboxamide], for which the EC50 came out at 3.8 nM in data set [1] and 2.1 nM in data set [2].
As to `CNC(=O)c1ccc(N2CCN(Cc3ccc4c([nH]c(=O)n5cccc45)c3F)CC2)c(F)n1` [Example 7, 6-fluoro-5-[4-({7-fluoro-5-oxo-6H-pyrrolo[1,2-c]quinazolin-8-yl}methyl)piperazin-1-yl]-N-methylpyridine-2-carboxamide], the EC50 turned out to be 2.1 nM in data set [1] and 1.3 nM in data set [2].
`CNC(=O)c1ccc(N2CCN(Cc3ccc4c([nH]c(=O)c5c(Cl)cnn54)c3F)CC2)c(F)n1` [Example 8]: the EC50 was determined as 1.8 nM in data set [1] and 0.94 nM in data set [2].
Taken in the same sequence, the figures for `CNC(=O)c1ccc(N2CCN(Cc3ccc4c([nH]c(=O)c5cccn54)c3F)CC2)c(F)n1` [Example 10, 6-fluoro-5-[4-({6-fluoro-4-oxo-5H-pyrrolo[1,2-a]quinoxalin-7-yl}methyl)piperazin-1-yl]-N-methylpyridine-2-carboxamide] were 0.64 nM and 0.3 nM.
`O=C(NCC(F)F)c1ccc(N2CCN(Cc3ccc4c([nH]c(=O)c5ccoc54)c3F)CC2)c(F)n1` [Example 11]: the EC50 in data set [1] was 1.1 nM; in data set [2], 0.86 nM.
Turning to `O=C(NCC(F)F)c1ccc(N2CCN(Cc3ccc4c([nH]c(=O)c5ccnn54)c3F)CC2)c(F)n1` [Example 12], the concentration giving a half-maximal response (EC50) was 1.6 nM in data set [1] and 0.9 nM in data set [2].
For the compound `Cc1cc2c(=O)[nH]c3c(F)c(CN4CCN(c5ccc(C(=O)NCC(F)F)nc5F)CC4)ccc3n2n1` [Example 13], the EC50 in data set [1] was 1.4 nM; in data set [2] it was 1.2 nM.
On to `O=C(NC1CC1)c1ccc(N2CCN(Cc3ccc4c([nH]c(=O)c5ccoc54)c3F)CC2)c(F)n1` [Example 14], for which the half-maximal effective concentration (EC50) in data set [1] stood at 1.2 nM; in data set [2], 0.68 nM.
On the same counts, the results for `O=C(NCC(F)F)c1ccc(N2CCN(Cc3ccc4c5c(c(=O)[nH]c4c3F)CCO5)CC2)c(F)n1` [Example 15] are 1.9 nM and 0.75 nM.
Take `O=C(NC1CC1)c1ccc(N2CCN(Cc3ccc4c5c(c(=O)[nH]c4c3F)CCO5)CC2)c(F)n1` [Example 16]: the figures for the 50% effective concentration (EC50) in data set [1] and in data set [2] were 5.1 nM and 3.1 nM, respectively.
As to `COCCNC(=O)c1ccc(N2CCN(Cc3ccc4c([nH]c(=O)c5cc(C)nn54)c3F)CC2)c(F)n1` [Example 17], the 50% effective concentration (EC50) in data set [1] turned out to be 1.5 nM; in data set [2] it was 1.3 nM.
Regarding `CNC(=O)c1ccc(N2CCN(Cc3ccc4c([nH]c(=O)c5cnn(C)c54)c3F)CC2)c(F)n1` [Example 19, 6-fluoro-5-[4-({6-fluoro-1-methyl-4-oxo-5H-pyrazolo[4,3-c]quinolin-7-yl}methyl)piperazin-1-yl]-N-methylpyridine-2-carboxamide], the half-maximal effective concentration (EC50) worked out at 57 nM in data set [1] and 31 nM in data set [2].
As for `CNC(=O)c1ccc(N2CCN(Cc3ccc4c([nH]c(=O)c5cn(C)nc54)c3F)CC2)c(F)n1` [Example 20, 6-fluoro-5-[4-({6-fluoro-2-methyl-4-oxo-5H-pyrazolo[4,3-c]quinolin-7-yl}methyl)piperazin-1-yl]-N-methylpyridine-2-carboxamide], the 50% effective concentration (EC50) came to 6.2 nM in data set [1] and 4 nM in data set [2].
For `Cc1cc2c(=O)[nH]c3c(F)c(CN4CCN(c5ccc(C(=O)NC6COC6)nc5F)CC4)ccc3n2n1` [Example 21], the EC50 in data set [1] was 1.3 nM; in data set [2] it was 0.66 nM.
Turning to `CNC(=O)c1ccc(N2CCN(Cc3ccc4c([nH]c(=O)c5c(C)cnn54)c3F)CC2)c(F)n1` [Example 23], the EC50 is 4.7 nM in data set [1] and 2.7 nM in data set [2].
Taken in the same sequence, the figures for `CNC(=O)c1ccc(N2CCN(Cc3ccc4c([nH]c(=O)c5cc(F)nn54)c3F)CC2)c(F)n1` [Example 25, 5-[4-({2,6-difluoro-4-oxo-5H-pyrazolo[1,5-a]quinoxalin-7-yl}methyl)piperazin-1-yl]-6-fluoro-N-methylpyridine-2-carboxamide] were 1.8 nM and 1.4 nM.
Regarding `CNC(=O)c1ccc(N2CCN(Cc3ccc4c5c(c(=O)[nH]c4c3F)CCO5)CC2)cn1` [Example 26], the figures for the EC50 in data set [1] and in data set [2] were 7.5 nM and 6 nM, respectively.
On to `CNC(=O)c1nc(C)c(N2CCN(Cc3ccc4c5c(c(=O)[nH]c4c3F)CCO5)CC2)cc1F` [Example 27], for which the values for the concentration giving a half-maximal response (EC50) in data set [1] and in data set [2] were 21 nM and 14 nM, respectively.
Consider `CNC(=O)c1ccc(N2CCN(Cc3ccc4c([nH]c(=O)c5c(F)cnn54)c3F)CC2)c(F)n1` [Example 28, 5-[4-({3,6-difluoro-4-oxo-5H-pyrazolo[1,5-a]quinoxalin-7-yl}methyl)piperazin-1-yl]-6-fluoro-N-methylpyridine-2-carboxamide], for which the EC50 in data set [1] is 0.84 nM; in data set [2], 0.57 nM.
Take `CNC(=O)c1ccc(N2CCN(Cc3ccc4c5c(c(=O)[nH]c4c3F)CCO5)CC2)c(C)n1` [Example 29]: the EC50 in data set [1] was found to be 4.3 nM; in data set [2], 2.1 nM.
